Laboratory results taken from US10130590B2, “Methods of treating cancer with atovaquone-related compounds” (DANA-FARBER CANCER INSTITUTE, INC., priority 2013, dated 2018).

Assays:
[1] = test system: gp130; assay: Flow cytometry of cell-surface gp130; format: cell-based
Description: Annexin V/PI staining was performed using Annexin V:FITC Apoptosis Detection Kit I (BD Biosciences). Staining for cell cycle analysis was performed as previously described (267). Staining for cell-surface receptors was performed in 50 μl PBS+2% FBS with 2 μl antibody to IL6R (BioLegend #352803) or 5 μl antibody to gp130 (BD Biosciences #555757) for 20 minutes on ice in the dark. Cells were washed twice, then resuspended in 300 μl of the same buffer. Samples were analyzed on a BD FACSCanto II machine. Transfection and siRNA Cells were reverse-transfected using Lipofectamine RNAiMAX (Invitrogen); the culture medium was changed 24 hours later. Control siRNA (D-001210-02) and REDD1 siRNA (M-010855-01) were from Thermo Scientific Dharmacon.
Since atovaquone reduced gp130 expression at the cell surface, it was asked whether this effect was accompanied by reduced total gp130 in the cell. To address this question, a time course of atovaquone treatment was performed and total cellular gp130 was measured by Western blotting in U266 cells treated with atovaquone at 20 μM. […] Thus, it was surmised that atovaquone also rapidly downregulates cell-surface gp130, paralleling STAT3 inhibition and preceding the decrease in total gp130. […] Loss of cell-surface gp130 may be due to decreased entry into the plasma membrane or increased internalization. In either case, the decrease in total gp130 observed at longer time points is likely due to degradation of relatively unstable intracellular gp130.

[2] = test system: U266 cells; assay: Viability of U266 cells grown in patient serum; format: cell-based, human; conditions: serum approximately 100 days following HSCT; compared to serum of patients receiving TMP-SMX; 4 days
Description: FIG. 43 contains a dot plot quantifying viability of U266 cancer cells grown for 4 days in serum from patients taking trimethoprim/sulfamethoxazole (TMP/SMX) or atovaquone; the indicated p-value was determined using the two-sample t-test.
The patient population consisted of AML patients treated with HSCT at the Dana-Farber Cancer Institute and who survived at least 150 days after transplant without relapse. Patients treated with atovaquone for at least 100 days within the 150-day period were classified as “high atovaquone” exposure, while the remaining patients were classified as “low atovaquone” exposure. […] To further investigate the anti-cancer activity of atovaquone in patients, serum samples were collected from patients approximately 100 days following HSCT who were being treated with either TMP-SMX or atovaquone. […] Atovaquone is a colored compound, and its presence in patient plasma is visibly noticeable.

[3] = test system: mTOR pathway; assay: Western blot of mTOR pathway markers (S6, S6K, 4E-BP1); format: cell-based
Description: Western blotting was performed as previously described (Battle T E, Arbiser J, & Frank D A (2005) The natural product honokiol induces caspase dependent apoptosis in B-cell chronic lymphocytic leukemia (B-CLL) cells. Blood 106(2):690-697). Antibodies to phospho-MAPK (9101), total MAPK (9102), phospho-Y705 STAT3 (9131), phospho-S6 (2215), total S6 (2217), phospho-4E-BP1 (9451), total 4E-BP1 (9644), total RSK (9355), phospho-S6K (9234, 85 used at 1:5000), total S6K (2708), phospho-eIF2α (9721, used at 1:1000), total eIF2α (5324), ATF4 (11815, used at 1:1000), PDGFRβ (3169), IGF1Rβ (9750), EGFR (2232), and HER2 (2242) were from Cell Signaling Technology. Phospho-RSK antibody was from R&D (AF889). Antibodies to total STAT3 (sc-482) and gp130 (sc-656, used at 1:1000) were from Santa Cruz Biotechnology. Phospho-S727 STAT3 antibody was described previously (229). REDD1 antibody was from Proteintech (10638-1-AP, used at 1:1000). Antibody recognizing full-length and cleaved ATF6 was from Abcam (ab122897, used at 1:1000). Antibodies to tubulin (T5168) and beta actin (A5316) were from Sigma. All antibodies were used at 1:10000 dilution for western blot unless otherwise noted. For immunoprecipitations, cells were lysed in 500 μl lysis buffer (0.5% NP-40, 150 mM NaCl, 50 mM Tris pH 7.5, with protease and phosphatase inhibitors freshly added at 1:100 [Pierce, PI78443]) on ice for 15 minutes, then centrifuged for 10 minutes at 14,000 RPM and 4° C. The supernatant was transferred to a new tube and incubated with 10 μl JAK2 antibody (Santa Cruz sc-278) or a mix of two TYK2 antibodies, 10 μl of each (Santa Cruz sc-5271 and Cell Signaling Technology 9312). Immunoprecipitation was performed overnight at 4° C. with rotation. The next day, 75 μl of protein A/G beads (Santa Cruz sc-2003) were washed twice in lysis buffer, then incubated with immunoprecipitates overnight as before. The next day, the beads were spun down (1 min. at 7,500 RPM and 4° C.) and washed 3 times with 650 μl lysis buffer for 10 minutes at 4° C. with rotation, then boiled in 50 μl sample buffer+10% β-mercaptoethanol. For Western blot, 20 μl were loaded per lane. For detection of phospho-tyrosine, a mixture of two pan-phospho-tyrosine antibodies (Cell Signaling Technology 9411 and 9416, 1:1000 of each) was used. Antibody to phospho-Y1007/1008 JAK2 was from Cell Signaling 86 Technology (3771, used at 1:1000). Antibody to phospho-Y570 JAK2 was from Millipore (09-241, used at 1:1000). Luminometric Assays Luciferase reporter cell lines were described previously (186). Firefly luciferase values were normalized by concurrent cell viability. Cell viability was measured as ATP-dependent luminescence by Cell Titer Glo (Promega).
K562 cells were treated with atovaquone (20 μM) or rapamycin (10 nM) for 1 hour or 5 hours, then analyzed by Western blot. […] The requirement for prolonged treatment to observe mTOR inhibition raised the possibility that this effect was mediated by an induced factor. To test this hypothesis, cells were pretreated with cycloheximide, a protein synthesis inhibitor. K562 cells were pre-treated with vehicle or cycloheximide (2 μg/ml) for 1 hour, then treated with vehicle or atovaquone (20 μM) for 5 hours. […] Similar results were obtained with actinomycin D, an inhibitor of mRNA synthesis.
To evaluate the role of REDD1, RNA interference was used to knock down its expression in adherent SKBR3 cells, given the relative ease of introducing siRNA into these cells. SKBR3 cells were transfected with control or REDD1 siRNA for 48 hours, then treated with atovaquone (25 μM) for 4 hours.
Next, U266 cells were treated with 12.5 or 25 μM buparvaquone or 1, 5, or 25 μM 2-(4-(trans-decahydronaphth-2-yl)butyl)-3-hydroxy-1,4-naphthoquinone (Sigma analog), or DMSO vehicle control, for 2.5 hours, after which cells were harvested and immunoblots were performed with antibodies for total and phospho STAT3 and total and phospho S6.

[4] = K562, 20 μM, only after 5 hours, efficacy comparable to rapamycin

O=C1C(O)=C([C@H]2CC[C@H](c3ccc(Cl)cc3)CC2)C(=O)c2ccccc21 [atovaquone, trans-2-[4-(4-chlorophenyl)cyclohexyl]-3-hydroxy-1,4-naphthalenedione]
cell surface gp130 in INA-6 and HEL cells ([1]; INA-6 20 μM 4 hours, HEL 25 μM 6 or 16 hours): induced downregulation of cell surface gp130 | cell-surface expression of gp130, flow cytometric time course ([1]; U266, 20 μM): rapidly inhibits the cell-surface expression of gp130 | cell-surface expression of gp130 ([1]; U266, 2.5 hours, atovaquone 20 μM, JAK inhibitor 1 1 μM, brefeldin A 3 μg/ml): substantially downregulated the cell-surface expression of gp130 | viability of U266 cells in serum from treated patients [2]: reduced the viability of U266 cells | phosphorylation of 4E-BP1 [3, 4]: inhibited phosphorylation of 4E-BP1 | phosphorylation of ribosomal protein S6 [3, 4]: inhibited phosphorylation | phosphorylation of p70S6K ([3]; K562, 6 hours): inhibited phosphorylation of p70S6K | inhibition of S6 phosphorylation after cycloheximide pre-treatment ([3]; K562 and U266, cycloheximide 2 μg/ml 1 hour): blocked in the presence of cycloheximide | inhibition of S6 phosphorylation after REDD1 knock down ([3]; SKBR3, REDD1 siRNA 48 hours, 25 μM 4 hours): largely blocked
